Laboratory results reported in US6974870B2, “Substituted 3-amino-thieno [2,3-b]pyridine-2-carboxylic acid amide compounds and processes for preparing and their uses” (Boehringer Ingelheim Phamaceuticals, Inc., priority 2002, dated 2005).

molecular target: T1, human IKKβ (Homo sapiens, UniProt O14920); assay: IKKβ kinase inhibition assay (phosphorylation of IκBα substrate, 33P-ATP); assay type: biochemical; conditions: flag-tagged human IKKβ 0.9 μg/ml, GST-IκBα (1-54) 53 μg/ml, 250 nM ATP, 1 hour at 25° C.
T1 construct: FLAG (N)
T1 sequence (O14920 1-756): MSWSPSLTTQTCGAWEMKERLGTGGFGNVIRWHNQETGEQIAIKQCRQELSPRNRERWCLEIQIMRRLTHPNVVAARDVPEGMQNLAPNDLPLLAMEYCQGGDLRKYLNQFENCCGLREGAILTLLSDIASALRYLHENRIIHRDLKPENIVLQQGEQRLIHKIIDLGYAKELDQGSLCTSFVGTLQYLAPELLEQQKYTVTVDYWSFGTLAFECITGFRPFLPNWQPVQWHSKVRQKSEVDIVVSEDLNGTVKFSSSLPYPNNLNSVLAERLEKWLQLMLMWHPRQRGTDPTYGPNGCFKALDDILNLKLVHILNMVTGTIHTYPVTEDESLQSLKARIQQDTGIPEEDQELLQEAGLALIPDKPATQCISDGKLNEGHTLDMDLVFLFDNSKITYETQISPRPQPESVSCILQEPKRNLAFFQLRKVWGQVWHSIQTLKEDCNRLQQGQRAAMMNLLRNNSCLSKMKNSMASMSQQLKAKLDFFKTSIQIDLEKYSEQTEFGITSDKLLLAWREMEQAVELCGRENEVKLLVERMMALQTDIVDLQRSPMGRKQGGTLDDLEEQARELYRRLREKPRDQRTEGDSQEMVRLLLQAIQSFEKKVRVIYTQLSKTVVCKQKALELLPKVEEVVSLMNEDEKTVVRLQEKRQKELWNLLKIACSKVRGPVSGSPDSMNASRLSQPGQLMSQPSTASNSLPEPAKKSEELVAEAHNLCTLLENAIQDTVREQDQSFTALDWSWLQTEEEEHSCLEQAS
Protocol: The inhibition of IKKα and IKKβ by the compounds of the present invention was determined with the following assay that measures the phosphorylation of the IκBα substrate by the respective kinases. The enzymes used in the assay were N-terminally flag-tagged versions of the human IKKβ or IKKα and the substrate was a GST fusion protein with IκBα (amino acids 1-54).
The reaction mixtures (60 μl) contained 20 mM HEPES pH 7.5, 10 mM MgCl2, 2 mM MnCl2, 100 mM NaCl, 100 μM Na3VO4, 20 mM β-glycerophosphate, 1 mM DTT, 2% DMSO, 250 nM ATP, 0.4 nM [^33P]ATP (specific activity, 3000 Ci/mmol), IκBα substrate, IKK enzyme and test compound. The reaction mixtures contained either 3.6 μg/ml IKKα and 245 μg/ml IκBα or 0.9 μg/ml IKKβ and 53 μg/ml IκBα.
Reactions were initiated by adding a solution of IκBα substrate and ATP to polypropylene plates containing IKK enzyme that was pre-incubated for 5 minutes with test compound. Then the reaction mixtures were incubated for 1 hour at 25° C., placed on ice and quenched by the addition of 150 μl 10% trichloroacetic acid and 5% disodium pyrophosphate. After mixing, the entire contents of the quenched reaction mixtures were transferred to a pre-wetted Packard UniFilter filtration plate, aspirated and washed 6 times with 250 μl of ddH2O using the Packard Filtermate Harvester. Filtration plates were then air dried, supplemented with 40 μl of Microscint 20 scintillation fluid and the ^33P-labeled reaction products were quantified using the Packard TopCount scintillation counter.
Compounds were tested in three-fold serial dilutions and inhibitor concentrations to achieve 50% inhibition of enzyme activity (i.e., IC50) were derived from dose-reponse curves using SAS software (SAS Institute, Cary N.C.). A non-linear regression analysis based on the Hill equation was applied to the percent inhibition versus concentration data. In all cases, compound concentrations were verified by HPLC.

IC50, < 1000 nM:
CCCc1cc(N2CCC(NCC(=O)Nc3cnc4ccccc4c3)CC2)nc2sc(C(N)=O)c(N)c12
CC(C)(C)c1cc(N2CCC(N)CC2)nc2sc(C(N)=O)c(N)c12 [3-Amino-6-(4-amino-piperidin-1-yl)-4-tert-butyl-thieno[2,3-b] pyridine-2-carboxylic acid amide]
CCCc1cc(N2CCC(NCC(=O)Nc3ccccc3C(N)=O)CC2)nc2sc(C(N)=O)c(N)c12 [3-Amino-6-(4-{[(2-carbamoyl-phenylcarbamoyl)-methyl]-amino}-piperidin-1-yl)-4-propyl-thieno[2,3-b] pyridine-2-carboxylic acid amide]
CCCc1cc(N2CCC(NCC(=O)NCCO)CC2)nc2sc(C(N)=O)c(N)c12 [3-Amino-6-(4-{[(2-hydroxy-ethylcarbamoyl)-methyl]-amino}-piperidin-1-yl)-4-propyl-thieno[2,3-b] pyridine-2-carboxylic acid amide]
CCCc1cc(N2CCC(NCC(=O)Nc3cccc(C(N)=O)c3)CC2)nc2sc(C(N)=O)c(N)c12 [3-Amino-6-(4-{[(3-carbamoyl-phenylcarbamoyl)-methyl]-amino}-piperidin-1-yl)-4-propyl-thieno[2,3-b] pyridine-2-carboxylic acid amide]
CCCc1cc(N2CCC(NCC(=O)NCC(N)=O)CC2)nc2sc(C(N)=O)c(N)c12 [3-Amino-6-(4-{[(carbamoylmethyl-carbamoyl)-methyl]-amino}-piperidin-1-yl)-4-propyl-thieno[2,3-b] pyridine-2-carboxylic acid amide]
CCCc1cc(N2CCC(NCC(O)C(=O)NCc3ccccc3)CC2)nc2sc(C(N)=O)c(N)c12 (stereo not shown) [3-Amino-6-[4-(2-benzylcarbamoyl-2-hydroxy-ethylamino)-piperidin-1-yl]-4-propyl-thieno[2,3-b] pyridine-2-carboxylic acid amide]
CCCc1cc(N2CCC(NCC(O)c3ccc(-c4ccccc4)cc3)CC2)nc2sc(C(N)=O)c(N)c12 (stereo not shown) [3-Amino-6-[4-(2-biphenyl-4-yl-2-hydroxy-ethylamino)-piperidin-1-yl]-4-propyl-thieno[2,3-b] pyridine-2-carboxylic acid amide]
NC(=O)c1sc2nc(N3CCC(NCC(O)c4ccc(-c5ccccc5)cc4)CC3)cc(C(F)(F)F)c2c1N (stereo not shown) [3-Amino-6-[4-(2-biphenyl-4-yl-2-hydroxy-ethylamino)-piperidin-1-yl]-4-trifluoromethyl-thieno[2,3-b]pyridine-2-carboxylic acid amide]
CCCc1cc(N2CCC(NCC(O)C(=O)Nc3ccccc3)CC2)nc2sc(C(N)=O)c(N)c12 (stereo not shown) [3-Amino-6-[4-(2-hydroxy-2-phenylcarbamoyl-ethylamino)-piperidin-1-yl]-4-propyl-thieno[2,3-b] pyridine-2-carboxylic acid amide]
CCCc1cc(N2CCC(NCC(O)CNc3ccccc3)CC2)nc2sc(C(N)=O)c(N)c12 (stereo not shown) [3-Amino-6-[4-(2-hydroxy-3-phenylamino-propylamino)-piperidin-1-yl]-4-propyl-thieno[2,3-b] pyridine-2-carboxylic acid amide]
CCCc1cc(N2CCC(NCC(O)CCc3ccccc3)CC2)nc2sc(C(N)=O)c(N)c12 (stereo not shown) [3-Amino-6-[4-(2-hydroxy-4-phenyl-butylamino)-piperidin-1-yl]-4-propyl-thieno[2,3-b] pyridine-2-carboxylic acid amide]
NC(=O)c1sc2nc(N3CCC(NCCO)CC3)cc(C(F)(F)F)c2c1N [3-Amino-6-[4-(2-hydroxy-ethylamino)-piperidin-1-yl]-4-trifluoromethyl-thieno[2,3-b]pyridine-2-carboxylic acid amide]
